# Data from patent US20190365673A1, “Immunomodulatory Compounds” (Lankenau Institute for Medical Research, priority 2016, published 2019).
# Key:
# WM3743 melanoma cells = experiment: Cell viability assay (EZQuant), WM3743; format: cell-based; details: Homo sapiens; AP alone, 72 h, WM3743, BRAF WT
# Description: (§4) Cell proliferation assays were conducted in 96-well plates at 25-30% starting confluence to determine the effect of exposure to increasing concentrations of PLX4720 or AP with or without 1 mM DFMO for 72 hours. Cell viability was assessed using the EZQuant™ Cell Quantifying Kit (Alstem) in which WST-8 is reduced by the metabolic activity of live cells to formazan dye. […] The 72 hour IC50 values for AP were calculated using non-linear regression (sigmoidal dose response) of the plot of percentage inhibition versus the log of inhibitor concentration in GraphPad Prism (v5; GraphPad Software, Inc., La Jolla, Calif.).
# B16F10-BRAF^V600E cells = experiment: Cell viability assay, B16F10-BRAF V600E; details: Mus musculus, read-out: IC50 (cytotoxicity)
# Description: (§1) Cell proliferation assays were conducted in 96-well plates at 25-30% starting confluence to determine the effect of exposure to increasing concentrations of PLX4720 or AP with or without 1 mM DFMO for 72 hours. Cell viability was assessed using the EZQuant™ Cell Quantifying Kit (Alstem) in which WST-8 is reduced by the metabolic activity of live cells to formazan dye. For spheroids treated with PLX4720 and/or AP, viability of the spheroid cells was estimated by quantification of the ATP present using a CellTiter-Glo Luminescent Cell Viability Assay (Promega Co., Madison, Wis.). The 72 hour IC50 values for AP were calculated using non-linear regression (sigmoidal dose response) of the plot of percentage inhibition versus the log of inhibitor concentration in GraphPad Prism (v5; GraphPad Software, Inc., La Jolla, Calif.).
# WM989 melanoma cells = experiment: Cell viability assay (EZQuant), WM989; format: cell-based; details: Homo sapiens; AP alone, 72 h, WM989, BRAF V600E
# Description: as §4
# [1] = tested on: 1205Lu melanoma spheroids; experiment: 3D spheroid culture viability (CellTiter-Glo); format: cell-based, human; details: FIG. 10, 25 μM each drug, 48 h, 3D spheroids on NCPs
# Description: (§2) BRAF^V600E mutant 1205Lu melanoma cells were seeded at 1×10^4 cells in each well of the […] NCPs. When spheroids were formed on day 3, the 3D cultures of spheroids were treated with PLX4720 (25 μM) and/or AP (25 μM). 2D monolayer cultures of 1205Lu melanoma cells were also treated with PLX4720 (25 μM) and/or AP (25 μM). After drug treatment for 48 hours, the viability of spheroids and monolayer cultures was assayed using the CellTiter-Glo Luminescent Cell Viability Assay. The percent cell survival in each treatment group was calculated relative to cells treated with medium only under the same conditions. As controls, the growth of cells without drug treatment under each condition was normalized as 100% separately. The means are presented±SD.
# The inorganic nanoscale scaffolding NanoCulture plates (NCP) were purchased from SCIVAX. The base of each NCP is constructed with a transparent cyclo-olefin resinous sheet with a nanoscale indented pattern. To form spheroids, 1205Lu human melanoma cells were seeded in 96-well NCPs at 1×10^4 cells/well in MCDB153 (Sigma)/Leibovitz's L-15 (Cellgro) medium (4:1 ratio) supplemented with 2% heat-inactivated fetal calf serum and 2 mM CaCl2 and incubated in a conventional cell incubator at 37° C. in an atmosphere of 5% CO2 and normal O2 levels. […]
# [2] = tested on: BRAF-mutant melanoma tumor; experiment: BRAF-mutant melanoma tumor in mice treated with PLX4720; format: in vivo; details: FIG. 11, co-treatment with PLX4720, begun when the tumor has regressed
# Description: FIG. 11 provides a graph of tumor volume in mice over time after treatment with PLX4720 alone or PLX4720 with delayed administration of AP and DFMO.
# In addition to the above, the efficacy of AP in vivo was also tested.
# [3] = tested on: BRAF^V600E melanoma cells; experiment: Cell viability, panel of BRAF V600E human melanoma cell lines; format: cell-based; details: summary of Table 1, BRAF V600E lines, read-out: IC50 (sensitivity to AP)
# From the text: (§3) A panel of human melanoma cell lines with different BRAF mutational status were screened for their sensitivity to the BRAF inhibitor PLX4720. […] The IC50 value is defined as the concentration of the compound (PLX4720) required to inhibit 50% cell viability compared to an untreated control. This approach allowed for the ranking of the relative sensitivity of each cell line to the PLX4720 BRAF inhibitor. Thus, the sensitivity of these BRAF^V600E melanoma cells to BRAF inhibition with PLX4720 reflected their functional dependence on mutant BRAF signaling to sustain their proliferation and viability. Likewise, it was tested whether BRAF^V600E cells were more sensitive compared to BRAF^WT melanoma cells to increasing concentrations of the cytotoxic polyamine transport ligand, AP.
# [4] = tested on: 1205Lu melanoma monolayer cultures; experiment: 2D monolayer culture viability (CellTiter-Glo); format: cell-based, human; details: FIG. 10, 25 μM each drug, 48 h
# Description: as §2
# B16F10 melanoma tumors = experiment: B16F10 melanoma tumor model (Example 3); format: in vivo, C57Bl/6 mice
# Description: C57Bl/6 mice were injected s.c. with 1.5×10^5 B16F10 melanoma cells. B16F10 melanoma cells are a poorly immunogenic, highly metastatic, and highly aggressive cancer cell line. When tumors were 40-80 mm^3 in size, AP (Formula (II)) treatment (i.p., 2 mg/kg every other day) was initiated. Some mice were also administered 0.25% DFMO (w/v) in the drinking water. Tumors were measured with calipers to determine tumor volume over 14 days of treatment (FIG. 12A). Splenocytes from mice treated with vehicle, DFMO, AP, or AP+DFMO were analyzed by flow cytometry for F4/80+CD206^+ M2 macrophages (FIG. 12B). Splenocytes were treated for 4 hours at 37° C. with ionomycin (500 ng/ml) and PMA (50 ng/ml) to stimulate T cells to produce IFNγ in the presence of Brefeldin A to block cytokine secretion. Cells were stained with anti-CD4 antibody in the presence of Brefeldin A, fixed, permeabilized and intracellularly stained with an anti-IFNγ antibody and analyzed by flow cytometry (FIG. 12C).
# B16F10-pBABE cells = experiment: Cell viability assay, B16F10-pBABE; details: Mus musculus, read-out: IC50 (cytotoxicity)
# Description: as §1
# WM3734 melanoma cells = experiment: Cell viability assay (EZQuant), WM3734; format: cell-based; details: Homo sapiens; AP alone, 72 h, WM3734, BRAF V600E
# Description: as §4
# BRAF^WT melanoma cells = experiment: Cell viability, panel of BRAF WT human melanoma cell lines; format: cell-based; details: summary of Table 1, BRAF WT lines, read-out: IC50 (sensitivity to AP)
# From the text: as §3
# WM3451 melanoma cells = experiment: Cell viability assay (EZQuant), WM3451; format: cell-based; details: Homo sapiens; AP alone, 72 h, WM3451, BRAF WT
# Description: as §4
# WM88 melanoma cells = experiment: Cell viability assay (EZQuant), WM88; format: cell-based; details: Homo sapiens; AP alone, 72 h, WM88, BRAF V600E
# Description: as §4
# WM3211 melanoma cells = experiment: Cell viability assay (EZQuant), WM3211; format: cell-based; details: Homo sapiens; AP alone, 72 h, WM3211, BRAF WT
# Description: as §4
compound,measurement,setting,value
CNCNCNCc1ccc(CNCNCNC)c2ccccc12 [AP],IC50,WM3743 melanoma cells,8.9 µM
same,IC50,B16F10-BRAF^V600E cells,24.4 µM
same,IC50,WM989 melanoma cells,1.2 µM
same,cell viability of spheroid cultures,[1],similarly sensitive
same,regrowth of BRAF inhibitor-resistant tumor,[2],significantly retards the regrowth
same,IC50,[3],< 2.5 µM
same,cell viability of monolayer cultures,[4],similarly sensitive
same,tumor growth,"B16F10 melanoma tumors; FIG. 12A, AP alone, i.p. 2 mg/kg every other day, 14 days",inhibits tumor growth
same,CD206+ F4/80+ macrophages (splenocytes),"B16F10 melanoma tumors; FIG. 12B, AP alone",dramatically decreases
same,IFN-gamma-secreting T cells,"B16F10 melanoma tumors; FIG. 12C, splenocytes stimulated with ionomycin and PMA",increasing
same,IC50,B16F10-pBABE cells,36.4 µM
same,IC50,WM3734 melanoma cells,2.2 µM
same,IC50,BRAF^WT melanoma cells,> 4 µM
same,IC50,WM3451 melanoma cells,9 µM
same,IC50,WM88 melanoma cells,0.8 µM
same,IC50,WM3211 melanoma cells,4.5 µM
